Earlier results, collected in patent US20250275917A1, “TOPICAL FOAMABLE PHARMACEUTICAL COMPOSITION” (EUROFARMA LABORATORIOS S.A., priority 2021, published 2025).

Conditions: systemic absorption

Structure (SMILES): Nc1cc(N2CCCCC2)nc(N)[n+]1[O-] [Minoxidil]
- concentration associated with adverse effects: 20 ng/mL
